Consider 37 molecules from BindingDB's records for patent US20240182487 (Blossomhill Therapeutics, 2024).

Holding throughout (test): Biochemical Assay
The target in experiment [1] is Epidermal growth factor receptor [L858R,T790M,C797S] (Homo sapiens, UniProt P00533, C797S/L858R/T790M). The procedure:
(§1) Biochemical Assays for Inhibition of Wild-Type and Mutant EGFRs.The inhibitory activities against EGFR WT, EGFR Δ752-759 mutant, EGFR Δ746-750/T790M mutant, EGFR Δ746-750/C797S mutant, EGFR Δ746-750/T790M/C797S mutant. […] Briefly, specific kinase/substrate pairs along with required cofactors were prepared in reaction buffer; 20 mM Hepes pH 7.5, 10 mM MgCl2, 1 mM EGTA, 0.02% Brij35, 0.02 mg/ml BSA, 0.1 mM Na3VO4, 2 mM DTT, 1% DMSO. Compounds were delivered into the reaction, followed 20 minutes later by addition of a mixture of ATP (Sigma, St. Louis MO) and 33P ATP (Perkin Elmer, Waltham MA) to a final concentration of 10 μM. Reactions were carried out at room temperature for 120 min, followed by spotting of the reactions onto P81 ion exchange filter paper (Whatman Inc., Piscataway, NJ). Unbound phosphate was removed by extensive washing of filters in 0.75% phosphoric acid.

Experiment [2] addresses Epidermal growth factor receptor (Homo sapiens, UniProt P00533). How it is done:
as §1

Experiment [3] addresses Epidermal growth factor receptor [L858R] (Homo sapiens, UniProt P00533, L858R). How it is done: as §1
Experiment [4] addresses Epidermal growth factor receptor [L858R,C797S] (Human, UniProt P00533, C797S/L858R). The procedure:
as §1

In experiment [5] the target is Epidermal growth factor receptor [T790M,L858R] (Homo sapiens, UniProt P00533, L858R/T790M). The procedure:
as §1

Sequence of Epidermal growth factor receptor [L858R,T790M,C797S] (P00533 25-1210 T790M/C797S/L858R limits assumed): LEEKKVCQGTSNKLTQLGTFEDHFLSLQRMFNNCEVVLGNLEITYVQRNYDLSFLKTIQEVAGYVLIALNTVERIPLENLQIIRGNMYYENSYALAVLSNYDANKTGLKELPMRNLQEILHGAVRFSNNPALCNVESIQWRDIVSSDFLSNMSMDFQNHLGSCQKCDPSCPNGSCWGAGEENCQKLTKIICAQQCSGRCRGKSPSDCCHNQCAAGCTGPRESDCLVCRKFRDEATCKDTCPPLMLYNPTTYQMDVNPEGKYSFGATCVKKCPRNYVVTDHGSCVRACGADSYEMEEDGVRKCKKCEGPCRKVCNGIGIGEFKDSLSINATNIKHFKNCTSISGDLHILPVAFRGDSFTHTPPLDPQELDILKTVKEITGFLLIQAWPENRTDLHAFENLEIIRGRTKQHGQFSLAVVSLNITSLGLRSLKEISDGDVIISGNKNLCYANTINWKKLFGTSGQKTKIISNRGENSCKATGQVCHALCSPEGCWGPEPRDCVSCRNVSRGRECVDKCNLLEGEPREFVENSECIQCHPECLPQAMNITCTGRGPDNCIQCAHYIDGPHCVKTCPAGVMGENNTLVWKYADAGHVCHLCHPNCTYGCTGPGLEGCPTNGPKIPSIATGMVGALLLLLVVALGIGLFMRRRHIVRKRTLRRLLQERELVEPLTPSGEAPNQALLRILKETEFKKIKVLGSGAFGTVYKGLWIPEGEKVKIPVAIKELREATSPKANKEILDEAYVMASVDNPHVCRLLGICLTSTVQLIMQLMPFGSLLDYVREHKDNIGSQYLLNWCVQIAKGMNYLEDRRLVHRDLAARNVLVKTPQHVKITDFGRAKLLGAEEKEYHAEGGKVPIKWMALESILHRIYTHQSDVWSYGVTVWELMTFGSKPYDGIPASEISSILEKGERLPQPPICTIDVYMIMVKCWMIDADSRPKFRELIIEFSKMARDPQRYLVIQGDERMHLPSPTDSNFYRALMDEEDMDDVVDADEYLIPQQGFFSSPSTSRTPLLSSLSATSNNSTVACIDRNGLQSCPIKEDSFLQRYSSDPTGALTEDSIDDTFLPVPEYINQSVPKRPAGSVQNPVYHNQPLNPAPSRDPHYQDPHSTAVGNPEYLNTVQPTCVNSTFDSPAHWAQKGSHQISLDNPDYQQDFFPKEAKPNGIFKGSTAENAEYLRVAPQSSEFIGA
Sequence of Epidermal growth factor receptor [T790M,L858R] (P00533 25-1210 T790M/L858R limits assumed): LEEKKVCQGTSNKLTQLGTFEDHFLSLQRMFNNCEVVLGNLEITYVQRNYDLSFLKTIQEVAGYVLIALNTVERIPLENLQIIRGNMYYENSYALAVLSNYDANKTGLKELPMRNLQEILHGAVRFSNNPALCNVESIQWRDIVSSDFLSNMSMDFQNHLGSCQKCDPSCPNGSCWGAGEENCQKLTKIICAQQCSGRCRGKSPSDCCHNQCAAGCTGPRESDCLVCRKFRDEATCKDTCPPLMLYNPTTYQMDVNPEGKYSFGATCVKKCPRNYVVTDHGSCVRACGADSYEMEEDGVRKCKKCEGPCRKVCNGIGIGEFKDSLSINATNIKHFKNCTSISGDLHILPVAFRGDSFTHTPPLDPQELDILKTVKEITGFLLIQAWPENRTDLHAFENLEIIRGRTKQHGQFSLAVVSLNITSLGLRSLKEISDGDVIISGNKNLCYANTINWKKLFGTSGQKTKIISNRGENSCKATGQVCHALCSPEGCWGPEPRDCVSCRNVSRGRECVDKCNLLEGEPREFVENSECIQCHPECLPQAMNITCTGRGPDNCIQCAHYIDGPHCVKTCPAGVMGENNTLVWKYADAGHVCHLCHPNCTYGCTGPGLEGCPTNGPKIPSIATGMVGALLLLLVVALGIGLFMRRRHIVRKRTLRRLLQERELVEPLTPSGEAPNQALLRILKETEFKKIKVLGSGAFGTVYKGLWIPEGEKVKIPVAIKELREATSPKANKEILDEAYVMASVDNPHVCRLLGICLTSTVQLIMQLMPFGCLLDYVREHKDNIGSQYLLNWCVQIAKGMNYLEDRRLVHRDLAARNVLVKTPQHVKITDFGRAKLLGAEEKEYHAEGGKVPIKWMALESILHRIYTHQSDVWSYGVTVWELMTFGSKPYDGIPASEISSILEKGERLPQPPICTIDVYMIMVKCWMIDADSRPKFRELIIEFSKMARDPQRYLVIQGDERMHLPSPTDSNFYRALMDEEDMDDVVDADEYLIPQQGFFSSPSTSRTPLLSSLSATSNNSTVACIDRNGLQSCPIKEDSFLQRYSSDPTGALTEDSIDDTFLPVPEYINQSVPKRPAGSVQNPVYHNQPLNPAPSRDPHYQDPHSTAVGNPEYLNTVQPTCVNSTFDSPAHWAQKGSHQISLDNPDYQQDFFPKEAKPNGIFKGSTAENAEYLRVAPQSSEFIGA
Sequence of Epidermal growth factor receptor (P00533 whole entry): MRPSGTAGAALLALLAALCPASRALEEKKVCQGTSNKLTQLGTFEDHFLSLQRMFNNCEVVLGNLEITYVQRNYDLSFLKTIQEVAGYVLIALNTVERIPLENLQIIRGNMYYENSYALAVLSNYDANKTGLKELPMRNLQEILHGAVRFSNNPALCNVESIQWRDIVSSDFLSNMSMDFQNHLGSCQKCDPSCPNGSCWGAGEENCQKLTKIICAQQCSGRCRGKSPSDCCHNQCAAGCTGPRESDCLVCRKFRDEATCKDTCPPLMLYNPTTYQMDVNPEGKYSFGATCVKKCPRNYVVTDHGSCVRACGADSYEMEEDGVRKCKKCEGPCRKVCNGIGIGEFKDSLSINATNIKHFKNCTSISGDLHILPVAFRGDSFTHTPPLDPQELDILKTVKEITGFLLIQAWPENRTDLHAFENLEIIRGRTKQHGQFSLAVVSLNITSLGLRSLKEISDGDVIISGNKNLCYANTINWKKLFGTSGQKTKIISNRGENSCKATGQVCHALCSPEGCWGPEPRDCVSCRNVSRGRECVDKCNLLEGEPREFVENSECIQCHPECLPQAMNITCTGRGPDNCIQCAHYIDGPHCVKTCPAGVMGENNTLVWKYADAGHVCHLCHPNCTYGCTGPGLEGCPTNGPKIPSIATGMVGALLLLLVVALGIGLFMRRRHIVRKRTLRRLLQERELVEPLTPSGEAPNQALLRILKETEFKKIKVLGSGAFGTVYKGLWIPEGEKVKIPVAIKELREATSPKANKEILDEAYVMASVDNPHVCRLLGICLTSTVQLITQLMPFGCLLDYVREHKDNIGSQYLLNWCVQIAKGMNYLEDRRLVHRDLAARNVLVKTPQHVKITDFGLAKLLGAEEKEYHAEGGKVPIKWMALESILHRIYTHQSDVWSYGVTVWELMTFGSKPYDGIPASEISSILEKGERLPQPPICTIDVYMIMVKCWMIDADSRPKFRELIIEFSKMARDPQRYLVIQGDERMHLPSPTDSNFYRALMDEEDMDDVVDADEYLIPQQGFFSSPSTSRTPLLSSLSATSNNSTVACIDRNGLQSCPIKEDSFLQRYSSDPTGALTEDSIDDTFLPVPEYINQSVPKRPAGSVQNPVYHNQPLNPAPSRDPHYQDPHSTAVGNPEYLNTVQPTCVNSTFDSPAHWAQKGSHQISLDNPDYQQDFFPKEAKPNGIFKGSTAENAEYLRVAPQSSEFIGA
Sequence of Epidermal growth factor receptor [L858R,C797S] (P00533 25-1210 C797S/L858R limits assumed): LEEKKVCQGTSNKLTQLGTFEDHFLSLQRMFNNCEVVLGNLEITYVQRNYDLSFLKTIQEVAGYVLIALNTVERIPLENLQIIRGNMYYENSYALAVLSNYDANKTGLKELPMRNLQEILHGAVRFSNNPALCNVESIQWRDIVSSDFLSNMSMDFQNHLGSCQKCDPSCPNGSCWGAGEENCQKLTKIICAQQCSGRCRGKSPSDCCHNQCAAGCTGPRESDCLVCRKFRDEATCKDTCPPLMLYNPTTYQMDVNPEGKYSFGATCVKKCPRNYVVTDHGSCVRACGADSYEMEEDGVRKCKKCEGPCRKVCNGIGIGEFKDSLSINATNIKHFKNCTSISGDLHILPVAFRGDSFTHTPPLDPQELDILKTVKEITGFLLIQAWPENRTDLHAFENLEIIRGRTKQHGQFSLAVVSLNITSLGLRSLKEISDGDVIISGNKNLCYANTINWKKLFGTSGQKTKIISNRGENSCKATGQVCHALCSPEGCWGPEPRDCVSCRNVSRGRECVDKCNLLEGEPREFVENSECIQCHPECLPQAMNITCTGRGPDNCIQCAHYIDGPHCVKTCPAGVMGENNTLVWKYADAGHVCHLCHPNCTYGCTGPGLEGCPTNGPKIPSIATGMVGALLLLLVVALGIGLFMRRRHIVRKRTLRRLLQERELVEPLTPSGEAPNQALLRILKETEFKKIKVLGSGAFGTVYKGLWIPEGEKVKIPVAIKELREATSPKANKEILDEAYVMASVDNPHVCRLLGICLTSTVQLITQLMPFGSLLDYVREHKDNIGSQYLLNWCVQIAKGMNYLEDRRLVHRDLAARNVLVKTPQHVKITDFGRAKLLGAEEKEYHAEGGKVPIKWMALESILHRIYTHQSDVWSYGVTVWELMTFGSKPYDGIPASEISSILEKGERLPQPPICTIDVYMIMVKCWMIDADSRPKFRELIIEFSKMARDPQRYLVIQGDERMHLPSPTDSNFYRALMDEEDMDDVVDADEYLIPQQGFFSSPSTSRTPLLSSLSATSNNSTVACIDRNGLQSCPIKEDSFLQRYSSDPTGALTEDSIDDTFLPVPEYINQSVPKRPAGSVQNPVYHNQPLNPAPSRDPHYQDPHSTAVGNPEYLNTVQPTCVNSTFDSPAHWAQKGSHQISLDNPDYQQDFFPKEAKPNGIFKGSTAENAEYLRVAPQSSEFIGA

For `CCc1c2c(nn1C)C(=O)N(C)CCOc1c[nH]c(=O)cc1-c1cc3c(n[nH]c3cn1)/C=C/2` [US20240182487, Compound 38], the IC50 – broadly, the point on the concentration scale where inhibition reaches its midpoint – in experiment [1] was 1130 nM.
In the case of `COC(=O)c1ccc2c(c1)/C=C/c1n[nH]c3cnc(cc13)-c1cnn(C)c1COCCO2` [US20240182487, Compound 75], the IC50 in experiment [2] came out at 938 nM; in experiment [1], 184 nM; in experiment [3], 165 nM.
Consider `CN1CCC(NC(=O)c2ccc3c(c2)/C=C/c2n[nH]c4cnc(cc24)-c2cnn(C)c2COCCO3)CC1` [US20240182487, Compound 93], for which the figures for the 50% inhibitory concentration (IC50) in experiment [2], in experiment [1] and in experiment [3] were 55.8 nM, 4.2 nM and 7.2 nM, respectively.
`CN1CCC(CNC(=O)c2ccc3c(c2)/C=C/c2n[nH]c4cnc(cc24)-c2cnn(C)c2OCCCO3)CC1` [US20240182487, Compound 76]: the IC50 in experiment [1] was found to be 3.1 nM; in experiment [3], 1.2 nM.
`CN1CCOCCN(c2ccc(F)c(Cl)c2)c2cc3c(n[nH]c3cn2)/C=C/c2cn(C)nc2C1=O` [US20240182487, Compound 99]: the concentration for half-maximal inhibition (IC50) in experiment [2] was 33.5 nM; in experiment [4] it was 50.2 nM; in experiment [5], > 10000 nM; in experiment [3], 25.5 nM.
On to `CN1CCC(NC(=O)c2ccc3c(c2)/C=C/c2n[nH]c4cnc(cc24)-c2cnn(C)c2OCCCO3)CC1` [US20240182487, Compound 97], for which the IC50 in experiment [2] came to 3.1 nM; in experiment [1], 3.4 nM; in experiment [3], 4.5 nM.
For the molecule `CNC(=O)c1ccc2c(c1)/C=C/c1n[nH]c3cnc(cc13)-c1cnn(C)c1OCCCO2` [US20240182487, Compound 86], the IC50 in experiment [2] came to 24.1 nM; in experiment [1], 8.8 nM; in experiment [3], 4.9 nM.
Regarding `CC(C)NC(=O)c1ccc2c(c1)OCCCOc1c(cnn1C)-c1cc3c(n[nH]c3cn1)/C=C/2` [US20240182487, Compound 77], the IC50 in experiment [1] is 172 nM; in experiment [3], 57.9 nM.
Consider `COC(=O)c1ccc2c(c1)/C=C/c1n[nH]c3cnc(cc13)-c1cnn(C)c1OCCCO2` [US20240182487, Compound 68], for which the values for the IC50 in experiment [2] and in experiment [1] were 159 nM and 16.6 nM, respectively.
Turning to `CN1CC[C@@H](NC(=O)c2ccc3c(c2)OCCOCc2c(cnn2C)-c2cc4c(n[nH]c4cn2)/C=C/3)C1` [US20240182487, Compound 87], the results for the IC50 in experiment [2], in experiment [1] and in experiment [3] were 80.1 nM, 17.2 nM and 16.3 nM, respectively.
With `Cc1nc2cc3c(n[nH]c13)/C=C/c1cc(F)ccc1OCCCOc1c-2cnn1C` [US20240182487, Compound 98], the IC50 worked out at 1240 nM in experiment [2], 192 nM in experiment [1] and 1110 nM in experiment [3].
Turning to `CCNC(=O)c1ccc2c(c1)OCCOCc1c(cnn1C)-c1cc3c(n[nH]c3cn1)/C=C/2` [US20240182487, Compound 84], the results for the IC50 in experiment [2], in experiment [1] and in experiment [3] were 884 nM, 160 nM and 433 nM, respectively.
On to `CN(C)CCCNC(=O)c1ccc2c(c1)/C=C/c1n[nH]c3cnc(cc13)-c1cnn(C)c1COCCO2` [US20240182487, Compound 91], for which the IC50 in experiment [2] stood at 97.2 nM; in experiment [1], 10.2 nM; in experiment [3], 28.2 nM.
`COC(=O)c1ccc2c(c1)OCCOCc1c(cnn1C)-c1cc3c(n[nH]c3cn1)/C=C/2` [US20240182487, Compound 69] registered an IC50 in experiment [1] of 98.3 nM.
`CN(C)CCNC(=O)c1ccc2c(c1)/C=C/c1n[nH]c3cnc(cc13)-c1cnn(C)c1COCCO2` [US20240182487, Compound 90]: the IC50 is 73.7 nM in experiment [2], 8.6 nM in experiment [1] and 22.2 nM in experiment [3].
The corresponding values for `COC(=O)c1ccc2c(c1)OCCCOc1c(cnn1C)-c1cc3c(n[nH]c3cn1)/C=C/2` [US20240182487, Compound 67] are 1000 nM, 112 nM and 1720 nM.
For `CN1CC[C@@H](NC(=O)c2ccc3c(c2)OCCCOc2c(cnn2C)-c2cc4c(n[nH]c4cn2)/C=C/3)C1` [US20240182487, Compound 82], the IC50 in experiment [2] stood at 9.8 nM; in experiment [1], 12 nM; in experiment [3] it was 5.4 nM.
For `CN1CC[C@H](NC(=O)c2ccc3c(c2)OCCCOc2c(cnn2C)-c2cc4c(n[nH]c4cn2)/C=C/3)C1` [US20240182487, Compound 88], in that order: 19.3 nM, 10.3 nM and 4.1 nM.
On to `Cc1ccc2c(n1)/C=C/c1n[nH]c3cnc(cc13)-c1cnn(C)c1C(C)OCCO2` (configuration not stated) [US20240182487, Compound 95], for which the half-inhibitory concentration (IC50) in experiment [2] was found to be 91.6 nM; in experiment [1] it was 35 nM; in experiment [3] it was 74.9 nM.
As to `Cn1ncc2c1COCCOc1ccc(C(=O)O)cc1/C=C/c1n[nH]c3cnc-2cc13` [US20240182487, Compound 92], the IC50 stood at 271 nM in experiment [2], 55.5 nM in experiment [1] and 66.4 nM in experiment [3].
As for `CCNC(=O)c1ccc2c(c1)/C=C/c1n[nH]c3cnc(cc13)-c1cnn(C)c1COCCO2` [US20240182487, Compound 89], the IC50 in experiment [2] stood at 158 nM; in experiment [3], 32 nM.
On to `Cn1ncc2c1COCCOc1ccccc1/C=C/c1n[nH]c3cnc-2cc13` [US20240182487, Compound 63], for which the IC50 in experiment [2] was 98.4 nM; in experiment [4], 61.9 nM; in experiment [1], 8.8 nM; in experiment [5], 5.8 nM; in experiment [3], 50 nM.
For the molecule `Cn1ncc2c1OCCCOc1ccc(F)cc1/C=C/c1n[nH]c3cnc-2cc13` [US20240182487, Compound 100], the 50% inhibitory concentration (IC50) in experiment [2] was found to be 176 nM; in experiment [1], 27.5 nM; in experiment [3], 13.9 nM.
With `CN(C)CCNC(=O)c1ccc2c(c1)OCCCOc1c(cnn1C)-c1cc3c(n[nH]c3cn1)/C=C/2` [US20240182487, Compound 74], the IC50 was found to be 5.7 nM in experiment [2], 8.3 nM in experiment [1] and 2.8 nM in experiment [3].
With `CN1CC(NC(=O)c2ccc3c(c2)OCCCOc2c(cnn2C)-c2cc4c(n[nH]c4cn2)/C=C/3)C1` [US20240182487, Compound 83], the values for the IC50 in experiment [2], in experiment [1] and in experiment [3] were 11.2 nM, 13.8 nM and 6 nM, respectively.
`CN(C)CCCNC(=O)c1ccc2c(c1)/C=C/c1n[nH]c3cnc(cc13)-c1cnn(C)c1OCCCO2` [US20240182487, Compound 70]: the figures for the IC50 in experiment [2], in experiment [1] and in experiment [3] were 5.9 nM, 5.3 nM and 2.2 nM, respectively.
As for `CN1CCC(NC(=O)c2ccc3c(c2)OCCCOc2c(cnn2C)-c2cc4c(n[nH]c4cn2)/C=C/3)CC1` [US20240182487, Compound 78], the IC50 in experiment [2] worked out at 6.2 nM; in experiment [1], 10.6 nM; in experiment [3], 2.9 nM.
On to `Cn1ncc2c1OCCCOc1cc(C(=O)O)ccc1/C=C/c1n[nH]c3cnc-2cc13` [US20240182487, Compound 73], for which the half-inhibitory concentration (IC50) in experiment [2] was 88.6 nM; in experiment [1], 220 nM; in experiment [3], 39 nM.
As to `CN1CCN(C(=O)c2ccc3c(c2)/C=C/c2n[nH]c4cnc(cc24)-c2cnn(C)c2COCCO3)CC1` [US20240182487, Compound 96], the half-inhibitory concentration (IC50) in experiment [2] was 586 nM; in experiment [1], 343 nM; in experiment [3], 470 nM.
Take `CCc1c2c(nn1C)C(=O)N(C)CCOc1cnc(OC)cc1-c1cc3c(n[nH]c3cn1)/C=C/2` [US20240182487, Compound 66]: the IC50 in experiment [3] was > 10000 nM.
Take `Cc1ccc2c(n1)/C=C/c1n[nH]c3cnc(nc13)-c1cnn(C)c1C(C)OCCO2` (configuration not stated) [US20240182487, Compound 65]: the IC50 in experiment [2] amounted to 438 nM; in experiment [1], 91.2 nM; in experiment [5] it was 23.4 nM; in experiment [3], 140 nM.
As for `Cn1ncc2c1OCCCOc1ccc(C(=O)N3CCCC3)cc1/C=C/c1n[nH]c3cnc-2cc13` [US20240182487, Compound 72], the IC50 in experiment [2] was 48.7 nM; in experiment [1], 64.7 nM; in experiment [3], 23.7 nM.
On to `Cn1ncc2c1COCCOc1ccccc1/C=C/c1n[nH]c3cnc-2nc13` [US20240182487, Compound 16], for which the IC50 in experiment [2] was found to be 551 nM; in experiment [4] it was 481 nM; in experiment [1], 263 nM; in experiment [5], 168 nM; in experiment [3], 350 nM.
Turning to `CN1CCC(CNC(=O)c2ccc3c(c2)/C=C/c2n[nH]c4cnc(cc24)-c2cnn(C)c2COCCO3)CC1` [US20240182487, Compound 94], the values for the IC50 in experiment [2], in experiment [1] and in experiment [3] were 101 nM, 9.9 nM and 9.2 nM, respectively.
Turning to `CN1CCC(NC(=O)c2ccc3c(c2)OCCOCc2c(cnn2C)-c2cc4c(n[nH]c4cn2)/C=C/3)CC1` [US20240182487, Compound 85], the IC50 in experiment [2] stood at 140 nM; in experiment [1], 31 nM; in experiment [3], 40.7 nM.
On to `CCc1nn(C)c2c1/C=C/c1n[nH]c3cnc(cc13)-c1cc(F)ccc1OCCN(C)C2=O` [US20240182487, Compound 62], for which the IC50 is 306 nM in experiment [2]; 104 nM in experiment [4]; 32.4 nM in experiment [1]; 36.3 nM in experiment [5]; 136 nM in experiment [3].
On to `CCc1c2c(nn1C)C(=O)N(C)CCCOc1cnc(OC)cc1-c1cc3c(n[nH]c3cn1)/C=C/2` [US20240182487, Compound 64], for which the IC50 in experiment [3] is > 10000 nM.
